These are literature values, as cited in US11369619B2, “Composition for curing migraine headaches” (priority 2014, dated 2022).

For orientation: LD50 means the dose expected to kill half of the subjects tested.

One data set has as its system male mice. Particulars: intravenous.
The test system of the next data set is migraine. The note with it: topical administration.
The conditions of data set [1]: taken orally, dosages of several hundred milligrams per day.

As to `C[C@@H]1C[C@H]2[C@@H]3CCC4=CC(=O)C=C[C@]4(C)[C@@]3(F)[C@@H](O)C[C@]2(C)[C@@]1(O)C(=O)COP(=O)(O)O` [Dexamethasone phosphate], the solubility in water result is given as “practically insoluble in water”. Take `C[C@@H]1C[C@H]2[C@@H]3CCC4=CC(=O)C=C[C@]4(C)[C@@]3(F)[C@@H](O)C[C@]2(C)[C@@]1(O)C(=O)COP(=O)(O)O` [dexamethasone sodium phosphate]: the LD50 in the data set with male mice is listed as 794 mg/kg. `CCN(CC)CC(=O)Nc1c(C)cccc1C` [lidocaine]: the “patients in whom treatment was effective” value in the data set on migraine is “about 55%”. In the case of `Cc1ncc(C[n+]2csc(CCO)c2C)c(N)n1` [thiamine], the adverse effects result in data set [1] is on record as “no reports of adverse effects”.
